Reference: patent publication US20240409542A1, “NOVEL COMPOUNDS” (Sitryx Therapeutics Limited, priority 2021, published 2024)
Converted amounts (≈) assume the structure as drawn.

Columns and labels:
[1] = Kinetic aqueous solubility; settings: kinetic from dmso stock, Kinetic solubility (Ksol), (μg/ml), PBS pH 7.4, 200 μM (2% DMSO), RT
Protocol: Phosphate buffered saline (PBS) pH 7.4 was prepared using PBS tablets as per the manufacturer's instructions. Compounds and marker stocks are prepared at 10 mM in DMSO.
Compounds were incubated at 200 μM (2% DMSO) in Millipore—MSS LB PC 10 or Porvair—ref: 36004 plates in the presence of the prepared PBS pH 7.4 solution for 1.5 h, at RT, with gentle shaking. […] The samples were then analysed in a 96 well UV Star analysis plate on a plate reader from 220 nm to 500 nm at 10 nm increments.
The concentration of the samples was calculated against the standard curves.

recombinant human PKM2 = recombinant human PKM2 (Homo sapiens (Human), UniProt P14618); experiment: Human PKM2 activation assay (Kinase-Glo Plus luminescence); assay type: biochemical; settings: for EC50: activation of recombinant human PKM2, 4-parameter logistic fit, read-out: hPKM2 EC50; for Emax: read-out: hPKM2 Emax (%)
Sequence of recombinant human PKM2 (P14618 whole entry): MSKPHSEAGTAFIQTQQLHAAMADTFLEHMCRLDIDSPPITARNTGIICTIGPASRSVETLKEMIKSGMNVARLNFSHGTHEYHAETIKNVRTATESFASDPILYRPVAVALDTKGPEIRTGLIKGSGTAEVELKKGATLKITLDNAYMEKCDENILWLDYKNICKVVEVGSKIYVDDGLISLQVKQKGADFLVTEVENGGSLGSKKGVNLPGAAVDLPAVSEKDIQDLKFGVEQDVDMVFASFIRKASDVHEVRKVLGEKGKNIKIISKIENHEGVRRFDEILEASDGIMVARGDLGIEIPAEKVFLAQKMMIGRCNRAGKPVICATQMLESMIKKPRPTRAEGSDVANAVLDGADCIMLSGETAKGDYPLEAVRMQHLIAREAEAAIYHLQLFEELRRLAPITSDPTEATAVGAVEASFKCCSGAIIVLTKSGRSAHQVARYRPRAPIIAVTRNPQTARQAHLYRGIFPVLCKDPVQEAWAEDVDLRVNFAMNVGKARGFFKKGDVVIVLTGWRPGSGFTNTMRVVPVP
Protocol: Compound activation of recombinant human PKM2 pyruvate kinase activity was determined by biochemical assay. N-terminal His-tagged hPKM2 was sourced from R&D Systems and its substrates phosphoenolpyruvate (PEP) and ADP from Sigma-Aldrich and 2BScientific Ltd, respectively. The Kinase-Glo® Plus luminescence assay was from Promega. All other reagents were from Sigma-Aldrich. Test Compounds were prepared as 10 mM DMSO stocks and dilution series prepared in DMSO for direct dilution into Assay Buffer comprising 50 mM imidazole, 50 mM KCl, 7 mM MgCl2, 0.01% Tween20, 0.05% BSA (pH 7.2).
Human PKM2 was diluted into Assay Buffer comprising 50 mM imidazole, 50 mM KCl, 7 mM MgCl2, 0.01% Tween20, 0.05% BSA (pH 7.2) to a final concentration of 5 pM. Enzyme-Assay Buffer mix was dispensed into a 384-well shallow-well white-walled plate (PerkinElmer) and Test Compounds added by acoustic dispense (Echo®, Labcyte Inc.).
After 60 minutes' incubation on an orbital shaker (300 rpm, 26° C.), enzyme activity was quantified by the luminescent detection of generated ATP. Kinase-Glo® Plus reagent was added to each well and the plates incubated for a further 15 minutes on an orbital shaker in the dark (300 rpm, 26° C.) before luminescence measurement on a plate reader (PHERAstar® FSX, BMG Labtech).
EC50 and Emax values were determined from 4-parameter logistic fits of compound concentration-response curves.

recombinant human PKLR = recombinant human PKLR (Homo sapiens (Human), UniProt P30613); experiment: Human PKLR activation assay (Kinase-Glo Plus luminescence); settings: for Emax: read-out: hPKLR Emax (%)
Sequence of recombinant human PKLR (P30613 whole entry): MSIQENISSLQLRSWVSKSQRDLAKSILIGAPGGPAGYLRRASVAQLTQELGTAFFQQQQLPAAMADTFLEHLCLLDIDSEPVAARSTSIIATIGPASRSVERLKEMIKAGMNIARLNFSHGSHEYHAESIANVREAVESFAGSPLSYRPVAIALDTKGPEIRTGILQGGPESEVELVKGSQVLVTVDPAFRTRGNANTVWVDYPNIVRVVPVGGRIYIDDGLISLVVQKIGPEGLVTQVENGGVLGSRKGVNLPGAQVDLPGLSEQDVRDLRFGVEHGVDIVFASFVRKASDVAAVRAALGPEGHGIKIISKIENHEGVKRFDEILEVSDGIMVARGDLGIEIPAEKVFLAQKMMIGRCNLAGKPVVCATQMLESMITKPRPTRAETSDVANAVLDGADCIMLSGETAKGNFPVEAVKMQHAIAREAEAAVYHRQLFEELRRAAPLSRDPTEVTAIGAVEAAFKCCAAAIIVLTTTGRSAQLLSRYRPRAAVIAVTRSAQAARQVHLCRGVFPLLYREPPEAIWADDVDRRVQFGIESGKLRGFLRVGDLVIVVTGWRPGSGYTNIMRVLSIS
Protocol: Compound activation of recombinant human PKLR pyruvate kinase activity was determined by biochemical assay. N-terminal His-tagged enzyme was sourced from R&D Systems and its substrates phosphoenolpyruvate (PEP) and ADP from Sigma-Aldrich and 2BScientific Ltd, respectively. The Kinase-Glo® Plus luminescence assay was from Promega. All other reagents were from Sigma-Aldrich. Test Compounds were prepared as 10 mM DMSO stocks and dilution series prepared in DMSO for direct dilution into Assay Buffer comprising 50 mM imidazole, 50 mM KCl, 7 mM MgCl2, 0.01% Tween20, 0.05% BSA (pH 7.2).
Human PKLR was diluted into Assay Buffer to a final concentration of 5 pM. Enzyme-Assay Buffer mix was dispensed into 384-well shallow-well white-walled plates and Test Compounds added by acoustic dispense (Echo®, Labcyte Inc).

[2] = phosphate buffered saline (PBS) pH 7.4, pH 7.4, aqueous buffer

SMILES | solubility kinetic at 1.5 h [1, 2] | EC50 (recombinant human PKM2) | Emax (recombinant human PKM2) | EC50 (recombinant human PKLR) | Emax (recombinant human PKLR) | solubility kinetic at 1.5 h ([1]; phosphate buffered saline, pH 7.4, aqueous buffer)
Cn1c2c(c3cnn(Cc4c[nH]c5cnccc45)c(=O)c31)CCN(S(C)(=O)=O)C2 [Example 36, 3-((1H-pyrrolo[2,3-c]pyridin-3-yl)methyl)-5-methyl-7-(methylsulfonyl)-3,5,6,7,8,9-hexahydro-4H-pyrido[4′,3′:4,5]pyrrolo[2,3-d]pyridazin-4-one] | > 82.5 µg/mL | 71 nM | 100% | 43.5 to 60 nM | 90 to 100% | 
Cn1c2c(c3cnn(Cc4cccc5[nH]ncc45)c(=O)c31)CCN(S(C)(=O)=O)C2 [Example 32, 3-((1H-indazol-4-yl)methyl)-5-methyl-7-(methylsulfonyl)-3,5,6,7,8,9-hexahydro-4H-pyrido[4′,3′:4,5]pyrrolo[2,3-d]pyridazin-4-one] | 16.2 µg/mL (≈ 39.2 µM) | 365 nM | 94.6% |  |  | 
Cn1c2c(c3cnn(Cc4cc[nH]n4)c(=O)c31)CCN(S(C)(=O)=O)C2 [Example 4, 3-((1H-pyrazol-3-yl)methyl)-5-methyl-7-(methylsulfonyl)-3,5,6,7,8,9-hexahydro-4H-pyrido[4′,3′:4,5]pyrrolo[2,3-d]pyridazin-4-one] | 42 µg/mL (≈ 116 µM) | 1140 nM | 89.8% | 60 to 320 nM | 100 to 117% | 
Cn1c2c(c3cnn(Cc4csc5ccncc45)c(=O)c31)CCN(S(C)(=O)=O)C2 [Example 34, 5-methyl-7-(methylsulfonyl)-3-(thieno[3,2-c]pyridin-3-ylmethyl)-3,5,6,7,8,9-hexahydro-4H-pyrido[4′,3′:4,5]pyrrolo[2,3-d]pyridazin-4-one] | 1.8 µg/mL (≈ 4.19 µM) | 440 nM | 82.6% |  |  | 
Cn1c2c(c3cnn(Cc4c[nH]c5ccccc45)c(=O)c31)CCN(S(C)(=O)=O)C2 [Example 15, 3-((1H-indol-3-yl)methyl)-5-methyl-7-(methylsulfonyl)-3,5,6,7,8,9-hexahydro-4H-pyrido[4′,3′:4,5]pyrrolo[2,3-d]pyridazin-4-one] | 2.49 µg/mL (≈ 6.05 µM) | 99 nM | 99.9% |  |  | 
COCCNS(=O)(=O)N1CCc2c(n(C)c3c(=O)n(Cc4ccc(OC)nc4)ncc23)C1 [Example 28, N-(2-methoxyethyl)-3-((6-methoxypyridin-3-yl)methyl)-5-methyl-4-oxo-3,4,5,6,8,9-hexahydro-7H-pyrido[4′,3′:4,5]pyrrolo[2,3-d]pyridazine-7-sulfonamide] | > 92.5 µg/mL | 385 nM | 56.4% |  |  | 
Cn1c2c(c3cnn(Cc4ccc5cc[nH]c5n4)c(=O)c31)CCN(S(C)(=O)=O)C2 [Example 25, 3-((1H-pyrrolo[2,3-b]pyridin-6-yl)methyl)-5-methyl-7-(methylsulfonyl)-3,5,6,7,8,9-hexahydro-4H-pyrido[4′,3′:4,5]pyrrolo[2,3-d]pyridazin-4-one] | 3.94 µg/mL (≈ 9.55 µM) | 342 nM | 99.5% |  |  | 
Cn1c2c(c3cnn(Cc4ccsc4CO)c(=O)c31)CCN(S(C)(=O)=O)C2 [Example 13, 3-((2-(hydroxymethyl)thiophen-3-yl)methyl)-5-methyl-7-(methylsulfonyl)-3,5,6,7,8,9-hexahydro-4H-pyrido[4′,3′:4,5]pyrrolo[2,3-d]pyridazin-4-one] | 38 µg/mL (≈ 92.9 µM) | 702 nM | 88.5% |  |  | 
Cn1c2c(c3cnn(Cc4coc5ccccc45)c(=O)c31)CCN(S(C)(=O)=O)C2 [Example 16, 3-(benzofuran-3-ylmethyl)-5-methyl-7-(methylsulfonyl)-3,5,6,7,8,9-hexahydro-4H-pyrido[4′,3′:4,5]pyrrolo[2,3-d]pyridazin-4-one] | 7.58 µg/mL (≈ 18.4 µM) | 129 nM | 76.6% |  |  | 
Cn1c2c(c3cnn(Cc4n[nH]c5ccccc45)c(=O)c31)CCN(S(C)(=O)=O)C2 [Example 20, 3-((1H-indazol-3-yl)methyl)-5-methyl-7-(methylsulfonyl)-3,5,6,7,8,9-hexahydro-4H-pyrido[4′,3′:4,5]pyrrolo[2,3-d]pyridazin-4-one] | 8.43 µg/mL (≈ 20.4 µM) | 272 nM | 111% |  |  | 
C[C@H](N)c1cccc(Cn2ncc3c4c(n(C)c3c2=O)CN(S(C)(=O)=O)CC4)c1 [Example 26, (S)-3-(3-(1-aminoethyl)benzyl)-5-methyl-7-(methylsulfonyl)-3,5,6,7,8,9-hexahydro-4H-pyrido[4′,3′:4,5]pyrrolo[2,3-d]pyridazin-4-one] | > 83 µg/mL | 372 nM | 81.1% |  |  | 
Cn1c2c(c3cnn(Cc4cccc(S(C)(=O)=O)c4)c(=O)c31)CCN(S(C)(=O)=O)C2 [Example 31, 5-methyl-7-(methylsulfonyl)-3-(3-(methylsulfonyl)benzyl)-3,5,6,7,8,9-hexahydro-4H-pyrido[4′,3′:4,5]pyrrolo[2,3-d]pyridazin-4-one] | 18.8 µg/mL (≈ 41.8 µM) | 423 nM | 75.3% |  |  | 
Cn1c2c(c3cnn(Cc4cccc(N5CCCC5)n4)c(=O)c31)CCN(S(C)(=O)=O)C2 [Example 19, 5-methyl-7-(methylsulfonyl)-3-((6-(pyrrolidin-1-yl)pyridin-2-yl)methyl)-3,5,6,7,8,9-hexahydro-4H-pyrido[4′,3′:4,5]pyrrolo[2,3-d]pyridazin-4-one] | 5.42 µg/mL (≈ 12.2 µM) | 869 nM | 63.8% |  |  | 
Cn1c2c(c3cnn(Cc4ccsc4C(N)=O)c(=O)c31)CCN(S(C)(=O)=O)C2 [Example 14, 3-((5-methyl-7-(methylsulfonyl)-4-oxo-4,5,6,7,8,9-hexahydro-3H-pyrido [4′,3′:4,5]pyrrolo[2,3-d]pyridazin-3-yl)methyl)thiophene-2-carboxamide] | 41.3 µg/mL (≈ 98.1 µM) | 512 nM | 102% |  |  | 
COc1ccc(S(=O)(=O)N2CCc3c(n(C)c4c(=O)n(Cc5ccsc5C(N)=O)ncc34)C2)cc1 [Example 22, 3-((7-((4-methoxyphenyl)sulfonyl)-5-methyl-4-oxo-4,5,6,7,8,9-hexahydro-3H-pyrido[4′,3′:4,5]pyrrolo[2,3-d]pyridazin-3-yl)methyl)thiophene-2-carboxamide] | 2.53 µg/mL (≈ 4.93 µM) | 385 nM | 76.8% |  |  | 
COc1ccc(Cn2ncc3c4c(n(C)c3c2=O)CN(S(=O)(=O)c2ccccc2)CC4)c(F)c1 [Example 21, 3-(2-fluoro-4-methoxybenzyl)-5-methyl-7-(phenylsulfonyl)-3,5,6,7,8,9-hexahydro-4H-pyrido[4′,3′:4,5]pyrrolo[2,3-d]pyridazin-4-one] | 1.04 µg/mL (≈ 2.16 µM) | 986 nM | 71.4% |  |  | 
COCCS(=O)(=O)N1CCc2c(n(C)c3c(=O)n(Cc4c[nH]c5cnccc45)ncc23)C1 [Example 29, 3-((1H-pyrrolo[2,3-c]pyridin-3-yl)methyl)-7-((2-methoxyethyl)sulfonyl)-5-methyl-6,7,8,9-tetrahydro-3H-pyrido[4′,3′:4,5]pyrrolo[2,3-d]pyridazin-4(5H)-one] |  | 280 nM | 89% |  |  | 37.5 µg/mL (≈ 82 µM)
